Earlier results, collected in US20160067227A1, “PHARMACEUTICAL COMBINATIONS FOR THE TREATMENT OF METABOLIC DISORDERS” (Boehringer Ingelheim International GmbH, priority 2012, published 2016).

Settings: metformin on its own, in the diabetic

CN(C)C(=N)N=C(N)N [metformin]
average improvement in the HbA1c value: 1.0-1.5%
